The text below walks through data of patent US10259818B2, “Bicyclic azaheterocyclobenzylamines as PI3K inhibitors” (Incyte Corporation, priority 2012, dated 2019).

Some results are limits rather than exact numbers.

In this test the test system is SUDHL-6 cell line (diffuse large B cell lymphoma). The test can be described thus: SUDHL-6 cell proliferation assay (Example B3). The conditions noted are these: SUDHL-6 cells, 3 days, Cell Titer-GLO. The test is classed as cell-based. Here is the method:
Example B3: SUDHL-6 Cell Proliferation Assay
SUDHL-6 cell line (diffuse large B cell lymphoma) was purchased from ATCC (Manassas, Va.) and maintained in the culture medium recommended (RPMI and 10% FBS). To measure the anti-proliferation activity of the compounds through ATP quantitation, the SUDHL-6 cells was plated with the culture medium (5000 cells/well/per 200 μl) into 96-well polystyrene clear black tissue culture plate (Greiner-bio-one through VWR, NJ) in the presence or absence of a concentration range of test compounds. After 3 days, Cell Titer-GLO Luminescent (Promega, Madison, Wis.) cell culture agent was added to each well for 10 minutes at room temperature to stabilize the luminescent signal. This determines the number of viable cells in culture based on quantitation of the ATP present, which signals the presence of metabolically active cells. Luminescence was measured with the TopCount 384 (Packard Bioscience through Perkin Elmer, Boston, Mass.). […] IC50 data for the Examples is presented in Table 4 determined by the assay of Example B3.

Molecule `Cc1nn(C(C)c2cc(Cl)c(C#N)c3c2OC(C)CN(CC(C)(C)O)C3)c2ncnc(N)c12` (single isomer, unassigned) [Example 66, 9-[1-(4-Amino-3-methyl-1H-pyrazolo[3,4-d]pyrimidin-1-yl)ethyl]-7-chloro-4-(2-hydroxy-2-methylpropyl)-2-methyl-2,3,4,5-tetrahydro-1,4-benzoxazepine-6-carbonitrile] had an IC50 of at most 500 nM.
For `CC(=O)NC1CC(N2Cc3c(C#N)c(Cl)cc(C(C)n4nc(C)c5c(N)ncnc54)c3OC(C)C2)C1` (single isomer, unassigned) [Example 67, N-{3-[9-[1-(4-Amino-3-methyl-1H-pyrazolo[3,4-d]pyrimidin-1-yl)ethyl]-7-chloro-6-cyano-2-methyl-2,3-dihydro-1,4-benzoxazepin-4(5H)-yl]cyclobutyl}acetamide], the IC50 (Homo sapiens, SU-DHL-6, 72 h) was at most 500 nM.
With `CC(=O)NC1CC(N2Cc3c(C#N)c(Cl)cc(C(C)n4nc(C)c5c(N)ncnc54)c3OC(C)C2)C1` (single isomer, unassigned) [Example 68, N-{3-[9-[1-(4-Amino-3-methyl-1H-pyrazolo[3,4-d]pyrimidin-1-yl)ethyl]-7-chloro-6-cyano-2-methyl-2,3-dihydro-1,4-benzoxazepin-4(5H)-yl]cyclobutyl}acetamide], the IC50 was at most 500 nM.
Molecule `CCC1CN(CCO)Cc2c(C#N)c(Cl)cc(C(C)n3nc(C)c4c(N)ncnc43)c2O1` (single isomer, unassigned) [Example 69, 9-[1-(4-Amino-3-methyl-1H-pyrazolo[3,4-d]pyrimidin-1-yl)ethyl]-7-chloro-2-ethyl-4-(2-hydroxyethyl)-2,3,4,5-tetrahydro-1,4-benzoxazepine-6-carbonitrile] gave an IC50 (Homo sapiens, SU-DHL-6, 72 h) of at most 500 nM.
For the molecule `CCC1CN(CCO)Cc2c(C#N)c(Cl)cc(C(C)n3nc(C)c4c(N)ncnc43)c2O1` (single isomer, unassigned) [Example 70, 9-[1-(4-Amino-3-methyl-1H-pyrazolo[3,4-d]pyrimidin-1-yl)ethyl]-7-chloro-2-ethyl-4-(2-hydroxyethyl)-2,3,4,5-tetrahydro-1,4-benzoxazepine-6-carbonitrile], the IC50 was at most 500 nM.
Consider `Cc1nn(C(C)c2cc(Cl)c(F)c3c2OC(C)CN(C[C@@H](C)O)C3)c2ncnc(N)c12` (single isomer, unassigned) [Example 78], for which, where the note is “Homo sapiens, SU-DHL-6, 72 h”, the concentration for half-maximal inhibition (IC50) was at most 500 nM.
Consider `COC(=O)N1CC(N2Cc3c(F)c(Cl)cc(C(C)n4nc(C)c5c(N)ncnc54)c3OC(C)C2)C1` (single isomer, unassigned) [Example 80, methyl 3-[9-[1-(4-amino-3-methyl-1H-pyrazolo[3,4-d]pyrimidin-1-yl)ethyl]-7-chloro-6-fluoro-2-methyl-2,3-dihydro-1,4-benzoxazepin-4(5H)-yl]azetidine-1-carboxylate], for which the IC50 (Homo sapiens, SU-DHL-6, 72 h) was at most 500 nM.
Take `Cc1nn(C(C)c2cc(Cl)c(F)c3c2OC(C)CN(C2CN(S(N)(=O)=O)C2)C3)c2ncnc(N)c12` (single isomer, unassigned) [Example 82, 3-[9-[1-(4-amino-3-methyl-1H-pyrazolo[3,4-d]pyrimidin-1-yl)ethyl]-7-chloro-6-fluoro-2-methyl-2,3-dihydro-1,4-benzoxazepin-4(5H)-yl]azetidine-1-sulfonamide]: the IC50 (Homo sapiens, SU-DHL-6, 72 h) was at most 500 nM.
On the same count and under the same terms, next, `Cc1nn(C(C)c2cc(Cl)c(F)c3c2OC(C)CN(C2CN(C(N)=O)C2)C3)c2ncnc(N)c12` (single isomer, unassigned) [Example 83, 3-[9-[1-(4-amino-3-methyl-1H-pyrazolo[3,4-d]pyrimidin-1-yl)ethyl]-7-chloro-6-fluoro-2-methyl-2,3-dihydro-1,4-benzoxazepin-4(5H)-yl]azetidine-1-carboxamide]: at most 500 nM.
The molecule `Cc1nn(C(C)c2cc(Cl)c(F)c3c2OC(C)CN(C2CN(C(N)=O)C2)C3)c2ncnc(N)c12` (single isomer, unassigned) [Example 84, 3-[9-[1-(4-amino-3-methyl-1H-pyrazolo[3,4-d]pyrimidin-1-yl)ethyl]-7-chloro-6-fluoro-2-methyl-2,3-dihydro-1,4-benzoxazepin-4(5H)-yl]azetidine-1-carboxamide] returned an IC50 of at most 500 nM.
`Cc1nn(C(C)c2cc(Cl)c(F)c3c2O[C@@H](C)CN(C2CN(CC(N)=O)C2)C3)c2ncnc(N)c12` (single isomer, unassigned) [Example 88] displayed an IC50 (Homo sapiens, SU-DHL-6, 72 h) of at most 500 nM.
Regarding `Cc1nn(C(C)c2cc(Cl)c(C#N)c3c2OC(C)CN(C2CN(S(C)(=O)=O)C2)C3)c2ncnc(N)c12` (single isomer, unassigned) [Example 93, 9-[1-(4-amino-3-methyl-1H-pyrazolo[3,4-d]pyrimidin-1-yl)ethyl]-7-chloro-2-methyl-4-[1-(methylsulfonyl)azetidin-3-yl]-2,3,4,5-tetrahydro-1,4-benzoxazepine-6-carbonitrile], under “Homo sapiens, SU-DHL-6, 72 h”, the 50% inhibitory concentration (IC50) is at most 500 nM.
Turning to `Cc1nn(C(C)c2cc(Cl)c(C#N)c3c2OC(C)CN(C2CN(S(C)(=O)=O)C2)C3)c2ncnc(N)c12` (single isomer, unassigned) [Example 94, 9-[1-(4-amino-3-methyl-1H-pyrazolo[3,4-d]pyrimidin-1-yl)ethyl]-7-chloro-2-methyl-4-[1-(methylsulfonyl)azetidin-3-yl]-2,3,4,5-tetrahydro-1,4-benzoxazepine-6-carbonitrile], the IC50 was at most 500 nM.
Take `CCC(=O)N1CC(N2Cc3c(C#N)c(Cl)cc(C(C)n4nc(C)c5c(N)ncnc54)c3OC(C)C2)C1` (single isomer, unassigned) [Example 95, 9-[1-(4-amino-3-methyl-1H-pyrazolo[3,4-d]pyrimidin-1-yl)ethyl]-7-chloro-2-methyl-4-(1-propionylazetidin-3-yl)-2,3,4,5-tetrahydro-1,4-benzoxazepine-6-carbonitrile]: the IC50 (Homo sapiens, SU-DHL-6, 72 h) was at most 500 nM.
For the molecule `CCNC(=O)N1CC(N2Cc3c(C#N)c(Cl)cc(C(C)n4nc(C)c5c(N)ncnc54)c3OC(C)C2)C1` (single isomer, unassigned) [Example 97, 3-[9-[1-(4-amino-3-methyl-1H-pyrazolo[3,4-d]pyrimidin-1-yl)ethyl]-7-chloro-6-cyano-2-methyl-2,3-dihydro-1,4-benzoxazepin-4(5H)-yl]-N-ethylazetidine-1-carboxamide], the IC50 (Homo sapiens, SU-DHL-6, 72 h) was at most 500 nM.
In the case of `CCNC(=O)N1CC(N2Cc3c(C#N)c(Cl)cc(C(C)n4nc(C)c5c(N)ncnc54)c3OC(C)C2)C1` (single isomer, unassigned) [Example 98, 3-[9-[1-(4-amino-3-methyl-1H-pyrazolo[3,4-d]pyrimidin-1-yl)ethyl]-7-chloro-6-cyano-2-methyl-2,3-dihydro-1,4-benzoxazepin-4(5H)-yl]-N-ethylazetidine-1-carboxamide], the IC50 is at most 500 nM.
Molecule `CCOC(=O)N1CC(N2Cc3c(C#N)c(Cl)cc(C(C)n4nc(C)c5c(N)ncnc54)c3OC(C)C2)C1` (single isomer, unassigned) [Example 99, ethyl 3-[9-[1-(4-amino-3-methyl-1H-pyrazolo[3,4-d]pyrimidin-1-yl)ethyl]-7-chloro-6-cyano-2-methyl-2,3-dihydro-1,4-benzoxazepin-4(5H)-yl]azetidine-1-carboxylate] showed an IC50 (Homo sapiens, SU-DHL-6, 72 h) of at most 500 nM.
`CCOC(=O)N1CC(N2Cc3c(C#N)c(Cl)cc(C(C)n4nc(C)c5c(N)ncnc54)c3OC(C)C2)C1` (single isomer, unassigned) [Example 100, ethyl 3-[9-[1-(4-amino-3-methyl-1H-pyrazolo[3,4-d]pyrimidin-1-yl)ethyl]-7-chloro-6-cyano-2-methyl-2,3-dihydro-1,4-benzoxazepin-4(5H)-yl]azetidine-1-carboxylate] showed an IC50 of at most 500 nM.
In turn, `Cc1nn(C(C)c2cc(Cl)c(C#N)c3c2OC(C)CN(C2CN(C(=O)NC(C)C)C2)C3)c2ncnc(N)c12` (single isomer, unassigned) [Example 101, 3-[9-[1-(4-amino-3-methyl-1H-pyrazolo[3,4-d]pyrimidin-1-yl)ethyl]-7-chloro-6-cyano-2-methyl-2,3-dihydro-1,4-benzoxazepin-4(5H)-yl]-N-isopropylazetidine-1-carboxamide] registered an IC50 (Homo sapiens, SU-DHL-6, 72 h) of at most 500 nM.
`Cc1nn(C(C)c2cc(Cl)c(C#N)c3c2OC(C)CN(C2CN(C(=O)NC(C)C)C2)C3)c2ncnc(N)c12` (single isomer, unassigned) [Example 102, 3-[9-[1-(4-amino-3-methyl-1H-pyrazolo[3,4-d]pyrimidin-1-yl)ethyl]-7-chloro-6-cyano-2-methyl-2,3-dihydro-1,4-benzoxazepin-4(5H)-yl]-N-isopropylazetidine-1-carboxamide] yielded an IC50 of at most 500 nM.
As for `Cc1nn(C(C)c2cc(Cl)c(C#N)c3c2OC(C)CN(C2CN(CCO)C2)C3)c2ncnc(N)c12` (single isomer, unassigned) [Example 104, 9-[1-(4-amino-3-methyl-1H-pyrazolo[3,4-d]pyrimidin-1-yl)ethyl]-7-chloro-4-[1-(2-hydroxyethyl)azetidin-3-yl]-2-methyl-2,3,4,5-tetrahydro-1,4-benzoxazepine-6-carbonitrile], the IC50 (Homo sapiens, SU-DHL-6, 72 h) was at most 500 nM.
Same read-out and setting: to `Cc1nn(C(C)c2cc(Cl)c(C#N)c3c2OC(C)CN(C2CN(S(=O)(=O)N(C)C)C2)C3)c2ncnc(N)c12` (single isomer, unassigned) [Example 105, 3-[9-[1-(4-amino-3-methyl-1H-pyrazolo[3,4-d]pyrimidin-1-yl)ethyl]-7-chloro-6-cyano-2-methyl-2,3-dihydro-1,4-benzoxazepin-4(5H)-yl]-N,N-dimethylazetidine-1-sulfonamide] belongs at most 500 nM.
